Results taken from PubChem BioAssay (NCI).
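Following 48 hours of exposure in 96-well plates, responses at five concentrations were used to interpolate endpoints linearly. Definition used: TGI = concentration required for complete inhibition of growth.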

Legend:
Experiment in all cases: inhibition of tumour cell growth, NCI panel, 48 h
M14 melanoma = system: M14 melanoma
BT-549 breast = system: BT-549 breast
T-47D breast = system: T-47D breast
HL-60(TB) leukemia = system: HL-60(TB) leukemia
NCI-H23 lung = system: NCI-H23 lung
UO-31 renal = system: UO-31 renal
SF-295 CNS = system: SF-295 CNS
UACC-62 melanoma = system: UACC-62 melanoma
MDA-MB-231 breast = system: MDA-MB-231 breast
ACHN renal = system: ACHN renal
786-0 renal = system: 786-0 renal
HS 578T breast = system: HS 578T breast
MALME-3M melanoma = system: MALME-3M melanoma
DU-145 prostate = system: DU-145 prostate
SK-MEL-5 melanoma = system: SK-MEL-5 melanoma
NCI-H460 lung = system: NCI-H460 lung
HCT-15 colon = system: HCT-15 colon
OVCAR-8 ovarian = system: OVCAR-8 ovarian
MCF7 breast = system: MCF7 breast
SW-620 colon = system: SW-620 colon
NCI-H226 lung = system: NCI-H226 lung
EKVX NSCLC = system: EKVX NSCLC
HCC-2998 colon = system: HCC-2998 colon
SK-MEL-2 melanoma = system: SK-MEL-2 melanoma
CAKI-1 renal = system: CAKI-1 renal
OVCAR-4 ovarian = system: OVCAR-4 ovarian
A549 NSCLC = system: A549 NSCLC
TK-10 renal = system: TK-10 renal
OVCAR-5 ovarian = system: OVCAR-5 ovarian
COLO 205 colon = system: COLO 205 colon
U251 CNS = system: U251 CNS
OVCAR-3 ovarian = system: OVCAR-3 ovarian
UACC-257 melanoma = system: UACC-257 melanoma
PC-3 prostate = system: PC-3 prostate
A498 renal = system: A498 renal
RXF 393 renal = system: RXF 393 renal
SNB-75 CNS = system: SNB-75 CNS
IGROV1 ovarian = system: IGROV1 ovarian
NCI/ADR-RES ovarian = system: NCI/ADR-RES ovarian
SNB-19 CNS = system: SNB-19 CNS
MDA-MB-435 = system: MDA-MB-435
MOLT-4 leukemia = system: MOLT-4 leukemia
HT29 colon = system: HT29 colon
SF-268 CNS = system: SF-268 CNS
SR leukemia = system: SR leukemia
HCT-116 colon = system: HCT-116 colon
SF-539 CNS = system: SF-539 CNS
SK-MEL-28 melanoma = system: SK-MEL-28 melanoma
LOX IMVI melanoma = system: LOX IMVI melanoma
RPMI-8226 leukemia = system: RPMI-8226 leukemia
SK-OV-3 ovarian = system: SK-OV-3 ovarian
CCRF-CEM leukemia = system: CCRF-CEM leukemia
HOP-92 NSCLC = system: HOP-92 NSCLC
K-562 leukemia = system: K-562 leukemia
HOP-62 NSCLC = system: HOP-62 NSCLC
KM12 colon = system: KM12 colon

Measured: TGI

CCN(CC)C(=O)C[n+]1c2ccccc2n2cc(N)ccc21
> 100 µM: M14 melanoma | BT-549 breast | T-47D breast | HL-60(TB) leukemia | NCI-H23 lung | UO-31 renal | SF-295 CNS | UACC-62 melanoma | MDA-MB-231 breast | ACHN renal | 786-0 renal | HS 578T breast | MALME-3M melanoma | DU-145 prostate | SK-MEL-5 melanoma | NCI-H460 lung | HCT-15 colon | OVCAR-8 ovarian | MCF7 breast | SW-620 colon | NCI-H226 lung | EKVX NSCLC | HCC-2998 colon | SK-MEL-2 melanoma | CAKI-1 renal | OVCAR-4 ovarian | A549 NSCLC | TK-10 renal | OVCAR-5 ovarian | COLO 205 colon | U251 CNS | OVCAR-3 ovarian | UACC-257 melanoma | PC-3 prostate | A498 renal | RXF 393 renal | SNB-75 CNS | IGROV1 ovarian | NCI/ADR-RES ovarian | SNB-19 CNS | MDA-MB-435 | MOLT-4 leukemia | HT29 colon | SF-268 CNS | SR leukemia | HCT-116 colon | SF-539 CNS | SK-MEL-28 melanoma | LOX IMVI melanoma | RPMI-8226 leukemia | SK-OV-3 ovarian | CCRF-CEM leukemia | HOP-92 NSCLC | K-562 leukemia | HOP-62 NSCLC | KM12 colon
